Data from patent US20170332627A1, “AGROCHEMICAL RESINATES FOR AGRICULTURAL APPLICATIONS” (priority 2014, published 2017).

Key:
[1] = Soil test (potting soil/sand, tap water) for release profile; type: physicochemical
Source text: To further explore behavior of the IER-AAI complex in conditions found in the soil, a soil test was developed to mimic in-vivo conditions by mixing potting soil with sand, based on the understanding that most soil in the field is not of the same quality as premium potting soil, but instead typically contains more clay or sand. The samples run through the soil test were WG01, WG02, WG05-WG10.
In this experiment, potting soil was mixed with sand in a 19:31 ratio. Then the desired amount of IER-AAI complex (the amount of resin that would allow the total AAI to be 25 mg) was mixed homogenously in with the soil. The Buchner funnel was fitted with filter paper and the filter paper was wet with a little bit of tap water. The Buchner funnel was then placed in an Erlenmeyer flask with a side arm fitted with a rubber adaptor. The side arm was hooked up to a vacuum and the vacuum turned on. Next, the sand/soil/IER-AAI mixture was poured into the Buchner funnel. 10 mL of tap water was poured evenly over the sand/soil/IER-AAI mixture and flooding was observed. Once the water drained into the Erlenmeyer flask, the Buchner funnel was removed and the water transferred into a glass vial. The Buchner funnel was replaced back on the Erlenmeyer flask, the vacuum turned back on, and another 10 mL of tap water was poured evenly over the sand/soil/IER-AAI mixture. This process was repeated until 10×10 mL fractions were collected. Each fraction was then analyzed for UV absorbance at 200-400 nm using a ThermoScientific model Evolution 201, diluting samples when necessary. Comparing the absorbance values against a calibration curve, the amount of AAI in each fraction was calculated.
The percent loading and release profile for each AAI was obtained based on the protocols described in Examples 14 and 15 respectively, except that the AAI content was held constant at 20 mg instead of 25 mg.

[2] = Sand column test, release of chloramben with DI water then 2M NaOH; type: physicochemical; settings: for release profile in sand column (FIG. 1): result in words
Source text: To assess the extended release properties of our WDG and HSC formulations (prepared in accordance with Example 7) we employed a sand column method as described below, where the results of the sand column test can be extrapolated to represent in vivo soil conditions.
Sand column tests were run first with water and then with a 2M NaOH ionic solution. […] The rest of the sand column tests were then run with 2M NaOH; we selected the hydroxyl ion as a representative anion to illustrate the release of the AAI through ion exchange.
First, the sand to be used in the sand column was weighed out into a centrifuge tube. Then the sand was wetted with DI water until flowable and vortexed to mix. Next, the sand was introduced into a Lab-Crest Buret fitted with a Stopcock. DI water was then passed through the sand column to remove any sand that had stuck to the side of the buret. Excess water was drained, until the water level was just at the top of the sand. In a separate small centrifuge tube, the sand was mixed with the experimental sample, and this mixture was added to the top of the sand column. Chloramben control and samples formulated as WG01, WG02, and HSC01 (as described above) were tested.
For each Sample, the experiment was conducted as follows. […] 7×10 mL fractions were collected from the column in appropriately sized culture tubes at 10 mL fractions. The stopcock was closed as the water level reached the top of the sand. […] 7×10 mL fractions were collected in appropriately sized culture tubes. Each fraction was then analyzed for UV absorbance at 200-400 nm using a ThermoScientific model Evolution 201, diluting samples when necessary. Comparing the absorbance values against a calibration curve, the amount of AAI in each fraction was calculated.
The results of these experiments are shown in the graph in FIG. 1.
Fractions 1-7 were run with deionized water flushing through the column, while fractions 8-14 were run with 2 M NaOH flushing through the column. The arrow indicates where the changeover from DI water to NaOH occurred. […] Only when there was a counterion present for exchange (i.e. OH^− in the NaOH), did the chloramben in the test samples start to release more quickly.

[3] = gibberellic acid, 20 mg total AAI, FIG. 9
[4] = control, no eluent named in head
[5] = whole run, DI water then 2M NaOH, same value under both heads
[6] = chloramben, 25 mg total AAI, 10x10 mL tap water, FIG. 4
[7] = benzoic acid, 25 mg total AAI, 10x10 mL tap water, FIG. 2
[8] = benzoic acid, 25 mg total AAI, 10x10 mL tap water, FIG. 3
[9] = benzoic acid, 25 mg total AAI, HSC comparison, FIG. 5
[10] = dicamba, 20 mg total AAI, FIG. 6
[11] = imidacloprid, 20 mg total AAI, FIG. 8
[12] = nicosulfuron, 20 mg total AAI, FIG. 7

In the case of `C=C1C[C@]23C[C@@]1(O)CC[C@H]2[C@@]12C=C[C@H](O)[C@@](C)(C(=O)O1)[C@H]2[C@@H]3C(=O)O` [GA Control, Gibberellic Acid], the “Percent Release” value [1, 3] is reported as 99% and the “Total AAI Released” value [1, 3] is reported as 20 mg.
For `Nc1cc(Cl)cc(C(=O)O)c1Cl` [Chloramben Control, Chloramben], the “% chloramben released in first two fractions” value [2, 4] was 44%, the “Total mg chloramben released” value [2, 4] was 20.92 mg and the “release profile in sand column (FIG. 1)” value [2] was “released more quickly”. For the same compound, the “release profile in sand column (FIG. 1)” value ([2]; listed as control chloramben powder) was “released very quickly”, the “% chloramben remaining” value [2, 5] was 30% and the “% total chloramben released” value [2, 5] was 70%. For the same compound, the “Percent Release” value [1, 6] was 71% and the “Total AAI Released” value [1, 6] was 18 mg.
With `O=C(O)c1ccccc1` [Benzoic Acid Control, Benzoic acid] the “Percent Released” value [1, 7] was 97%, the “Total AAI Released” value [1, 7] was 24 mg and the “Percent Release” value [1, 8] was 97%. The “Total AAI Released” value [1, 8] was 24 mg, the “Percent Release” value [1, 9] was 97% and the “Total AAI Released” value [1, 9] was 24 mg.
In the case of `COc1c(Cl)ccc(Cl)c1C(=O)O` [Dicamba Control, Dicamba], the “Percent Release” value [1, 10] is reported as 100% and the “Total AAI Released” value [1, 10] is reported as 20 mg.
With `O=[N+]([O-])NC1=NCCN1Cc1ccc(Cl)nc1` [ICD Control, Imidacloprid] the “Percent Release” value [1, 11] was 98% and the “Total AAI Released” value [1, 11] was 20 mg.
In the case of `COc1cc(OC)nc(NC(=O)NS(=O)(=O)c2ncccc2C(=O)N(C)C)n1` [NSN Control, Nicosulfuron], the “Percent Release” value [1, 12] is reported as 52% and the “Total AAI Released” value [1, 12] is reported as 10 mg.
